Assay results: US12195482B1 (Arcus Biosciences, Inc., priority 2022, dated 2025)

Target: T1, Axl (Homo sapiens, UniProt P30530)
T1 sequence (P30530 26-894): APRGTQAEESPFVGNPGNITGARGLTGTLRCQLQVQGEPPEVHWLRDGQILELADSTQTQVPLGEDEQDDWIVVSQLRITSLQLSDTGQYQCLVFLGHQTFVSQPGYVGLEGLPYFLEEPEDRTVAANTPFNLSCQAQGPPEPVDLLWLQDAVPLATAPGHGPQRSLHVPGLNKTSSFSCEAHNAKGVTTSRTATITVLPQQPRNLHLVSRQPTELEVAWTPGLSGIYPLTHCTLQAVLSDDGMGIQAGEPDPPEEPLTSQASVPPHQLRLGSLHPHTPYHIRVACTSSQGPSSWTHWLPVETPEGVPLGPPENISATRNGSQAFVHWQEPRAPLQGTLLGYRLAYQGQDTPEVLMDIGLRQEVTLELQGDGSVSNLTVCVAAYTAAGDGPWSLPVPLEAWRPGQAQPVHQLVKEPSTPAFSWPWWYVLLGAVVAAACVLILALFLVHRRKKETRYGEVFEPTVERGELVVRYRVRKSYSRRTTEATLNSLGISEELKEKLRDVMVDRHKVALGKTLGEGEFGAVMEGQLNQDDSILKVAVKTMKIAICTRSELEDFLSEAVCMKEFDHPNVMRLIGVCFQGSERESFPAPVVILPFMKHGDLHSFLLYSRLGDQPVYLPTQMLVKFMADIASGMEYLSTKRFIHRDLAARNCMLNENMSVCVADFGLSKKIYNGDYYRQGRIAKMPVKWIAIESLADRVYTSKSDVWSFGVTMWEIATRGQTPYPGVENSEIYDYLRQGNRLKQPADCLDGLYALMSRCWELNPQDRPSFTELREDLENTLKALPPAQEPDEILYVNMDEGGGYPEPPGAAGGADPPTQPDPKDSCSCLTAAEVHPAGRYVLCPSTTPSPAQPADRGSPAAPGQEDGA
Experiment: Axl NanoBRET intracellular kinase assay (intracellular binding, K-5 tracer displacement)
Set-up: host or cells: HEK-293
Conditions: HEK-293 cells transfected with Axl-NanoLuc, 0.35 μM K-5 NanoBRET tracer; read-out: Cell Binding AXL
Description: Measuring Intracellular Binding of Axl Inhibitors
Axl NanoBRET™ intracellular kinase assay (Promega, N2540) was performed according to manufacturer's recommendation. In brief, HEK-293 cells are transiently transfected with Ax1-NanoLuc fusion vector (Promega, NV1071), utilizing Fugene HD transfection reagent (Promega, E2311) a day before experiment following manufacturer's recommendation.
The day of the assay, the cells were collected and resuspended in Opti-MEM media (ThermoFisher, 31985070) at 2e5 cells/mL concentration. Testing compounds were serial diluted and dispensed into a white 384 well polystyrene plate at 200 nL in 100% DMSO. 40 μL of resuspended cells is then added per well for a final condition of 8K cells/well with 0.5% DMSO. After one-hour compound pre-incubation at 37° C. and 5% CO2, cells were further incubated with 0.35 μM K-5 NanoBRET tracer for two-hours at 37° C. and 5% CO2. […] of 3× substrate plus Inhibitor solution was prepared according to kits manual and added to the cells followed by a 30 second pulse centrifugation spin. The plate was then immediately read utilizing an Envision (Perkin Elmer) plate reader. The BRET signal is measured by taking the ratio of the emissions reading at 610 nm and 450 nm. Compound binding is based on the decrease BRET signal caused by the displacement of the K-5 tracer. […] ICso value of compounds was determined by 4-parameter non-linear regression fitting of percent activity in GraphPad Prism software.

IC50 [nM] | SMILES
< 100 | CN(C)C(=O)c1ccccc1-c1ccc(-c2c[nH]c3ncc(-c4ccc5c(c4)CC[C@@H](N4C6COCC4C6)CC5)cc23)cn1 [Example 170, N,N-Dimethyl-2-(5-{5-[(7S)-7-{3-oxa-6-azabicyclo[3.1.1]heptan-6-yl}-6,7,8,9-tetrahydro-5H-benzo[7]annulen-2-yl]-1H-pyrrolo[2,3-b]pyridin-3-yl}pyridin-2-yl)benzamide]
< 100 | c1ccc(-n2cc(-c3n[nH]c4ncc(-c5ccc6c(c5)CC[C@@H](N5C7COCC5C7)CC6)cc34)cn2)nc1 [Example 168, 6-[(7S)-2-{3-[1-(Pyridin-2-yl)-1H-pyrazol-4-yl]-1H-pyrazolo[3,4-b]pyridin-5-yl}-6,7,8,9-tetrahydro-5H-benzo[7]annulen-7-yl]-3-oxa-6-azabicyclo[3.1.1]heptane]
< 100 | CN(C)C(=O)c1cccnc1-c1ccc(-c2n[nH]c3ncc(-c4ccc5c(c4)CC[C@@H](N4C6COCC4C6)CC5)cc23)cc1 [Example 167, N,N-Dimethyl-2-(4-{5-[(7S)-7-{3-oxa-6-azabicyclo[3.1.1]heptan-6-yl}-6,7,8,9-tetrahydro-5H-benzo[7]annulen-2-yl]-1H-pyrazolo[3,4-b]pyridin-3-yl}phenyl)pyridine-3-carboxamide]
< 100 | COc1cccnc1-c1ccc(-c2c[nH]c3ncc(-c4ccc5c(c4)CC[C@@H](N4C6COCC4C6)CC5)cc23)cc1 [Example 164, 6-[(7S)-2-{3-[4-(3-Methoxypyridin-2-yl)phenyl]-1H-pyrrolo[2,3-b]pyridin-5-yl}-6,7,8,9-tetrahydro-5H-benzo[7]annulen-7-yl]-3-oxa-6-azabicyclo[3.1.1]heptane]
< 100 | Cc1nccnc1-c1ccc(-c2n[nH]c3ncc(-c4ccc5c(c4)CC[C@@H](N4C6COCC4C6)CC5)cc23)cc1 [Example 175, 6-[(7S)-2-{3-[4-(3-Methylpyrazin-2-yl)phenyl]-1H-pyrazolo[3,4-b]pyridin-5-yl}-6,7,8,9-tetrahydro-5H-benzo[7]annulen-7-yl]-3-oxa-6-azabicyclo[3.1.1]heptane]
< 100 | Cc1cncnc1-c1ccc(-c2n[nH]c3ncc(-c4ccc5c(c4)CC[C@@H](N4C6COCC4C6)CC5)cc23)cc1 [Example 174, 6-[(7S)-2-{3-[4-(5-Methylpyrimidin-4-yl)phenyl]-1H-pyrazolo[3,4-b]pyridin-5-yl}-6,7,8,9-tetrahydro-5H-benzo[7]annulen-7-yl]-3-oxa-6-azabicyclo[3.1.1]heptane]
< 100 | Cn1ccnc1-c1ccc(-c2n[nH]c3ncc(-c4ccc5c(c4)CC[C@@H](N4C6COCC4C6)CC5)cc23)cc1 [Example 111, 6-[(7S)-2-{3-[4-(1-Methyl-1H-imidazol-2-yl)phenyl]-1H-pyrazolo[3,4-b]pyridin-5-yl}-6,7,8,9-tetrahydro-5H-benzo[7]annulen-7-yl]-3-oxa-6-azabicyclo[3.1.1]heptane]
< 100 | Cn1ncnc1-c1ccc(-c2n[nH]c3ncc(-c4ccc5c(c4)CC[C@@H](N4C6COCC4C6)CC5)cc23)cc1 [Example 110, 6-[(7S)-2-{3-[4-(1-Methyl-1H-1,2,4-triazol-5-yl)phenyl]-2H-pyrazolo[3,4-b]pyridin-5-yl}-6,7,8,9-tetrahydro-5H-benzo[7]annulen-7-yl]-3-oxa-6-azabicyclo[3.1.1]heptane]
< 100 | Cc1cccnc1-c1ccc(-c2n[nH]c3ncc(-c4ccc5c(c4)CC[C@@](C)(N4CCC[C@H]4C)CC5)cc23)cc1 [Example 163, 3-Methyl-2-(4-{5-[(7S)-7-methyl-7-[(2R)-2-methylpyrrolidin-1-yl]-6,7,8,9-tetrahydro-5H-benzo[7]annulen-2-yl]-2H-pyrazolo[3,4-b]pyridin-3-yl}phenyl)pyridine]
< 100 | c1ccc(-c2ccc(-c3c[nH]c4ncc(-c5ccc6c(c5)CC[C@@H](N5C7COCC5C7)CC6)cc34)cc2)nc1 [Example 155, 6-[(7S)-2-{3-[4-(Pyridin-2-yl)phenyl]-1H-pyrrolo[2,3-b]pyridin-5-yl}-6,7,8,9-tetrahydro-5H-benzo[7]annulen-7-yl]-3-oxa-6-azabicyclo[3.1.1]heptane]
< 100 | Cn1nncc1-c1ccc(-c2n[nH]c3ncc(-c4ccc5c(c4)CC[C@@H](N4C6COCC4C6)CC5)cc23)cc1 [Example 13, 6-[(7S)-2-{3-[4-(1-Methyl-1H-1,2,3-triazol-5-yl)phenyl]-1H-pyrazolo[3,4-b]pyridin-5-yl}-6,7,8,9-tetrahydro-5H-benzo[7]annulen-7-yl]-3-oxa-6-azabicyclo[3.1.1]heptane]
< 100 | Cn1nccc1-c1ccc(-c2n[nH]c3ncc(-c4ccc5c(c4)CC[C@@H](N4C6COCC4C6)CC5)cc23)cc1 [Example 109, 6-[(7S)-2-{3-[4-(1-Methyl-1H-pyrazol-5-yl)phenyl]-1H-pyrazolo[3,4-b]pyridin-5-yl}-6,7,8,9-tetrahydro-5H-benzo[7]annulen-7-yl]-3-oxa-6-azabicyclo[3.1.1]heptane]
< 100 | CC(C)(O)c1cccnc1-c1ccc(-c2n[nH]c3ncc(-c4ccc5c(c4)CC[C@@H](N4C6COCC4C6)CC5)cc23)cc1 [Example 10, 2-[2-(4-{5-[(7S)-7-{3-Oxa-6-azabicyclo[3.1.1]heptan-6-yl}-6,7,8,9-tetrahydro-5H-benzo[7]annulen-2-yl]-1H-pyrazolo[3,4-b]pyridin-3-yl}phenyl)pyridin-3-yl]propan-2-ol]
< 100 | COc1cccnc1-c1ccc(-c2n[nH]c3ncc(-c4ccc5c(c4)CC[C@@H](N4C6COCC4C6)CC5)cc23)cc1 [Example 166, 6-[(7S)-2-{3-[4-(3-Methoxypyridin-2-yl)phenyl]-1H-pyrazolo[3,4-b]pyridin-5-yl}-6,7,8,9-tetrahydro-5H-benzo[7]annulen-7-yl]-3-oxa-6-azabicyclo[3.1.1]heptane]
< 100 | CC(C)(O)c1cccnc1-c1ccc(-c2c[nH]c3ncc(-c4ccc5c(c4)CC[C@@H](N4C6COCC4C6)CC5)cc23)cc1 [Example 95, 2-[2-(4-{5-[(7S)-7-{3-Oxa-6-azabicyclo[3.1.1]heptan-6-yl}-6,7,8,9-tetrahydro-5H-benzo[7]annulen-2-yl]-1H-pyrrolo[2,3-b]pyridin-3-yl}phenyl)pyridin-3-yl]propan-2-ol]
100 to 1000 | Cc1cc(-c2n[nH]c3ncc(-c4ccc5c(c4)CC[C@@H](N4C6COCC4C6)CC5)cc23)ccc1-c1ccccn1 [Example 159, 6-[(7S)-2-{3-[3-Methyl-4-(pyridin-2-yl)phenyl]-2H-pyrazolo[3,4-b]pyridin-5-yl}-6,7,8,9-tetrahydro-5H-benzo[7]annulen-7-yl]-3-oxa-6-azabicyclo[3.1.1]heptane]
< 100 | O=C(c1cccnc1-c1ccc(-c2c[nH]c3ncc(-c4ccc5c(c4)CC[C@@H](N4C6COCC4C6)CC5)cc23)cc1)N1CCCC1 [Example 171, 6-[(7S)-2-(3-{4-[3-(Pyrrolidine-1-carbonyl)pyridin-2-yl]phenyl}-1H-pyrrolo[2,3-b]pyridin-5-yl)-6,7,8,9-tetrahydro-5H-benzo[7]annulen-7-yl]-3-oxa-6-azabicyclo[3.1.1]heptane]
< 100 | C[C@@H]1CCCN1[C@@]1(C)CCc2ccc(-c3cnc4[nH]nc(-c5ccc(-c6ncnn6C)cc5)c4c3)cc2CC1 [Example 112, 1-Methyl-5-(4-{5-[(7S)-7-methyl-7-[(2R)-2-methylpyrrolidin-1-yl]-6,7,8,9-tetrahydro-5H-benzo[7]annulen-2-yl]-1H-pyrazolo[3,4-b]pyridin-3-yl}phenyl)-1H-1,2,4-triazole]
< 100 | Cc1cccnc1-c1ccc(-c2c[nH]c3ncc(-c4ccc5c(c4)CC[C@@](C)(N4CCC[C@H]4C)CC5)cc23)cc1 [Example 172, 3-Methyl-2-(4-{5-[(7S)-7-methyl-7-[(2R)-2-methylpyrrolidin-1-yl]-6,7,8,9-tetrahydro-5H-benzo[7]annulen-2-yl]-1H-pyrrolo[2,3-b]pyridin-3-yl}phenyl)pyridine]
